Reference: patent US20230090255A1, “MAGL INHIBITOR, PREPARATION METHOD THEREFOR AND USE THEREOF” (LUNAN PHARMACEUTICAL GROUP CORPORATION, priority 2019, published 2023)
pIC50: −log10 of the molar value. Marks after values point to notes of the source that are not given here.

Key:
[1] = tested on: irritable bowel syndrome rats; experiment: Irritable bowel syndrome rats induced by early maternal separation; assay type: in vivo, SD rats; set-up: AWR scoring: scale not given here; conditions: for Colon 5-HT / Serum 5-HT / AWR scoring: IBS rats; for 5-HT level in colon and serum, in words / AWR scoring, in words: compared with the model group
Description: The newborn SD male rats were separated from the mother rat in lactation period for 3 h every day on the 2nd to the 21st day after the birth of the newborn SD rats, namely, the mother rat in lactation period was taken out of the cage at 8:30 a.m., and then the newborn rats were removed from the initial cage and put to another separate cage, then the cage was transferred to an adjacent room, then the newborn rats were returned to the initial cage 3 h later, namely, at 11:30 such that the newborn rats and the mother rat got together; the newborn rats were weaned on the 22nd day after birth and separated from the initial cage on the 30th day, grouped on the 60th day, and administered, 20 d in total.
Intragastric administration was performed within the administration period once a day with continuous administration for 20 d.
Test indicators: abdominal withdrawal reflex (AWR); test method: rats were fasted 18 h before the experiment and drank water freely, and narcotized with diethyl ether; then an air sac coated with paraffin oil was inserted into the rats’ colorectum for 4.0 cm, and a catheter outside the anus was fixed at the root of the rat tail with an adhesive tape, and connected with an injection syringe and a sphygmomanometer via three links. The rats were put to an organic glass inspection box (20 cmx12 cm×9 cm), after the rats were awake and fully adapted to the environment for 30 min, the experiment was started. 20, 40 and 60 mm Hg of pressure were respectively applied on the rats, and continuous expansion was performed for 20 s each time with a stimulus interval of 4 min; each pressure was performed for 3 times repeatedly for AWR scoring.
At the end of the experiment, the animals were dissected and weighed, and narcotized to take blood, then the content of 5-HT in serum was determined by high performance liquid chromatography. […] slightly with 0.5% sodium carboxymethylcellulose, and then sucked dry with a filter paper, and placed into a cryogenic tube, and preserved at -20° C. for further use, […] chromatography.

[2] = molecular target: T1, recombinant human protein MAGL (Homo sapiens, UniProt Q99685); experiment: MAGL enzyme analysis (Cayman MAGL inhibitor screening kit); assay type: biochemical; conditions: 4-nitrophenylacetic acid substrate, absorbance 410 nm, read-out: MAGLXIC50
T1 construct: purchased Cayman
T1 sequence (Q99685 1-303): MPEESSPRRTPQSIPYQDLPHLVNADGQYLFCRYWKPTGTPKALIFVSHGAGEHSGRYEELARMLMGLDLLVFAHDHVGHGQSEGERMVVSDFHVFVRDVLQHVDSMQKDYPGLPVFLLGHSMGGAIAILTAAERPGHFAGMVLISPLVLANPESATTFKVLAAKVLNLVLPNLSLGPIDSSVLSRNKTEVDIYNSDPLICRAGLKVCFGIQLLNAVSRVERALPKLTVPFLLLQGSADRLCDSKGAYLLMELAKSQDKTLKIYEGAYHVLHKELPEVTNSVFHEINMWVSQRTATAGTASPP
Description: 150 µL 1Xassay buffer, 10 µL recombinant human protein MAGL and 10 µL different concentrations of MAGL inhibitors (six points within 1 nM to 1000 nM) were added to per well of a 96-well plate. JZL195 (a positive control inhibitor) served as a positive control well, after incubation for 5 min at room temperature, per well was added with 10 µL MAGL substrate, and […] were vibrated for 10 s and placed for 10 min at room temperature, then an absorbance was detected at 410 nm. […] Graphad Prism 5.0 was taken to calculate IC50 curves fitting each inhibitor.

[3] = Tissue distribution test in mice; assay type: in vivo; set-up: content in the brain (tissue distribution): unit not given here; conditions: 16 mg/kg subcutaneous injection
[4] = tested on: mice forced swimming test; experiment: Mice forced swimming test; assay type: in vivo, ICR mice; conditions: forced swimming, 6 min; 5 mg/kg intragastric once per day 10 d, 1 h after final administration
Description: (§1) Male ICR mice having a body weight of 18-22 g. The animals were active on a schedule of normal illumination for 12 h and in the dark for 12 h. Environmental temperature and relative humidity were relatively kept for 22±1° C. and 55±5%.
(§2) There were 7 groups of laboratory mice, 10 pieces each group, set as a control group (normal saline), a positive control group (fluoxetine hydrochloride capsule, 5 mg/kg), 5 MAGLZ-II series of administration treatment groups: MAGLZ-II-06, MAGLZ-II-07, MAGLZ-II-11, MAGLZ-II-17 and MAGLZ-II-18, respectively, with an administration concentration of 5 mg/kg.
(§3) All medicaments were used once per day via intragastric administration with a dose of 20 mL/kg (body weight), lasting for 10 d. 1 h later after the final administration, the detection of animal behaviors was started.
Mice forced swimming test was performed according to the method established by Porsolt (Porsolt R D. Behavioural despair in mice: A primary screening test for antidepressants[J]. Arch. Int. Pharmacolodyn. 1977, 229). […] Each mouse was judged as still when stopped struggling, kept suspension in water and only made necessary movement to keep the head above the water.
(§4) All data are shown by x̅±SD, and the comparison among groups is analyzed by one-way variance.

[5] = tested on: mice tail suspension test; experiment: Mice tail suspension test; assay type: in vivo, ICR mice; conditions: final 4 min of 6 min, 5 mg/kg intragastric once per day 10 d
Description: as §1, §2, §3
The tail suspension test (TST) was performed by the method established by Porsolt, et al. (Porsolt R D, Le Pichon M, Jalfre M. Depression: a new animal model sensitive to antidepressant treatments[J]. Nature, 1977, 266(5604):730-732). Mice were respectively suspended on the tail portions with tail suspension clamps at a distance of 10 mm away from the tail portion of the box (250 mm×250 mm×300 mm) and a distance of 5 cm where the head of each mouse was away from the bottom portion. Noise was tested in a dark room having minimum background, and each mouse was suspended for 6 min, and an immobility time was recorded at intervals in the final 4 min. Judgment standard: the mice stopped struggling and kept still completely.
as §4

[6] = high dose 30 mg/kg ig 20 d, 20 mm Hg
[7] = high dose 30 mg/kg ig 20 d, 40 mm Hg
[8] = high dose 30 mg/kg ig 20 d, 60 mm Hg
[9] = low dose 7.5 mg/kg ig 20 d, 20 mm Hg
[10] = low dose 7.5 mg/kg ig 20 d, 40 mm Hg
[11] = low dose 7.5 mg/kg ig 20 d, 60 mm Hg
[12] = middle dose 15 mg/kg ig 20 d, 20 mm Hg
[13] = middle dose 15 mg/kg ig 20 d, 40 mm Hg
[14] = middle dose 15 mg/kg ig 20 d, 60 mm Hg

Row | SMILES | Colon 5-HT ([1]; high dose 30 mg/kg ig 20 d) | Serum 5-HT ([1]; high dose 30 mg/kg ig 20 d) | AWR scoring [1, 6] | AWR scoring [1, 7] | AWR scoring [1, 8] | Colon 5-HT ([1]; low dose 7.5 mg/kg ig 20 d) | Serum 5-HT ([1]; low dose 7.5 mg/kg ig 20 d) | AWR scoring [1, 9] | AWR scoring [1, 10] | AWR scoring [1, 11] | Colon 5-HT ([1]; middle dose 15 mg/kg ig 20 d) | Serum 5-HT ([1]; middle dose 15 mg/kg ig 20 d) | AWR scoring [1, 12] | AWR scoring [1, 13] | AWR scoring [1, 14] | pIC50 [2] | 5-HT level in colon and serum, in words [1] | AWR scoring, in words [1] | Accumulated immobility time [4] [S] | Accumulated immobility time [5] [S] | further results
1 | O=C(Nc1ccc(Cl)cc1)C1CCN(C(=O)c2ccc(O)cc2)CC1 [MAGLZ-II-10] | 18.66±2.38^∗ µg/mg | 33.09±2.31^∗ µg/ml | 2.89±0.46 | 3.21±0.35^∗ | 3.65±0.17^∗ | 21.44 ± 2.72 µg/mg | 36.32 ± 3.14 µg/mL | 2.87±0.39 | 3.43±0.30 | 3.79±0.20 | 20.97 ± 2.24 µg/mg | 38.65 ± 2.68 µg/mL | 2.83±0.47 | 3.56±0.22 | 3.80±0.17 | – | – | – | – | – | –
2 | O=C(Nc1cccc(Cl)c1)C1CCN(C(=O)c2cc(O)ccc2F)CC1 [MAGLZ-II-11 (a)] | 12.65±3.36^∗∗∗ µg/mg | 24.05±6.17^∗∗∗ µg/ml | 1.23±0.50^∗∗ ∗ | 2.13±0.48^∗∗∗ | 2.87±0.46^∗∗∗ | 16.33±2.78^∗∗ µg/mg | 31.76±5.42^∗∗ µg/ml | 2.12±0.36^∗∗ ∗ | 3.02±0.53^∗ | 3.58±0.26^∗∗ | 14.79±2.73^∗∗∗ µg/mg | 29.89±5.34^∗∗∗ µg/ml | 1.51±0.43^∗∗ ∗ | 2.52±0.38^∗∗∗ | 3.27±0.48^∗∗∗ | 5.67 | significantly decrease | significantly decrease | – | – | –
3 | O=C(Nc1cccc(Cl)c1)C1CCN(C(=O)c2cccc(O)c2)CC1 [MAGLZ-II-11] | 12.00±2.93^∗∗∗ µg/mg | 23.82±6.34^∗∗∗ µg/ml | 1.39±0.30^∗∗ ∗ | 1.92±0.33^∗∗∗ | 2.86±0.26^∗∗∗ | 16.24±2.34^∗∗ µg/mg | 31.75±5.33^∗∗ µg/ml | 2.50±0.38^∗ | 3.00±0.49^∗∗ | 3.60±0.22^∗∗ | 14.33±2.10^∗∗∗ µg/mg | 29.47±4.91^∗∗∗ µg/ml | 2.02±0.57^∗∗ | 2.42±0.41^∗∗∗ | 3.03±0.37^∗∗∗ | 7.02 | significantly decrease | significantly decrease | 73.57±27.28 | 72.81±23.49 | content in the brain, ranking of the test substances [3]: lowest; content in the brain (tissue distribution) ([3]; 1.0 h): 0; content in the brain (tissue distribution) ([3]; 2.0 h): 1.6; content in the brain (tissue distribution) ([3]; 5.0 h): 1.3
4 | O=C(Nc1cccc(Cl)c1)C1CCN(C(=O)c2cc3cc(F)ccc3[nH]2)CC1 [MAGLZ-II-18 (a)] | 13.90 ± 1.13 µg/mg | 29.44 ± 4.37 µg/mL | 1.96±0.46** * | 2.60±0.58 | 3.00±0.54 | 16.43 ± 2.15 µg/mg | 32.51 ± 5.01 µg/mL | 2.58±0.26 | 3.06±0.38 | 3.50±0.29 | 14.64 ± 2.17 µg/mg | 30.20 ± 5.59 µg/mL | 2.35±0.40 | 3.02±0.51 | 3.39±0.34 | 5.67 | significantly decrease | significantly decrease | – | – | –
5 | Cn1c(C(=O)N2CCC(C(=O)Nc3cccc(Cl)c3)CC2)cc2ccccc21 [MAGLZ-II-18 (c)] | 14.34±2.40^∗∗∗ µg/mg | 29.03±5.29^∗∗∗ µg/ml | 1.38±0.51^∗∗ ∗ | 2.20±0.57^∗∗∗ | 2.96±0.70^∗∗∗ | 16.84 ± 2.87 µg/mg | 34.2 ± 5.37 µg/mL | 2.28±0.58 | 3.20±0.43 | 3.61±0.24 | 14.99±2.90^∗∗ µg/mg | 31.88±4.40^∗∗ µg/ml | 1.79±0.23^∗∗ ∗ | 2.87±0.65^∗∗ | 3.27±0.51^∗∗ | 8.59 | significantly decrease | significantly decrease | – | – | –
6 | O=C(Nc1cccc(Cl)c1)C1CCN(C(=O)c2cc3ccccc3[nH]2)CC1 [MAGLZ-II-18] | 14.33±2.10^∗∗∗ µg/mg | 30.86±5.28^∗∗∗ µg/ml | 1.87±0.36^∗∗ ∗ | 2.6±0.54^∗∗∗ | 3.09±0.34^∗∗∗ | 21.91 ± 2.46 µg/mg | 35.73 ± 3.32 µg/mL | 2.59±0.33 | 3.26±0.39 | 3.65±0.23^∗ | 14.89±3.19^∗∗ µg/mg | 29.12±7.05^∗∗ µg/ml | 2.29±0.36^∗∗ | 3.01±0.40^∗∗ | 3.3±0.45^∗∗ | 6.17 | significantly decrease | significantly decrease | 81.71±38.12 | 79.68±25.72 | –
